One series has as its system S. typhimurium C7731. The format is cell-based, Salmonella typhimurium. Conditions: C7731, 20 h. The text has this:
(§1) Escherichia coli ATCC25922, E. coli UB1005, Pseudomonas aeruginosa ATCC27853, Salmonella typhimurium ATCC14028, S. typhimurium C7731, Staphylococcus aureus ATCC29213, Methicillin-resistant S. aureus (MRSA) ATCC43300, S. epidermidis ATCC12228, and Enterococcus faecalis ATCC29212 were stored by the institute of animal nutrition, Northeast Agricultural University (Harbin, China). Multidrug-Resistant E. coli HP73 and E. coli HP74 were clinically isolated from swine-derived Escherichia coli and stored by the institute of animal nutrition, Northeast Agricultural University (Harbin, China).
(§2) The MICs were determined using a broth microdilution method with reference to Clinical and Laboratory Standards Institute (CLSI) guidelines ([Wiegand et al., 2008]). After a two-fold serial dilution of the peptides (50 μl, dilution buffer: 0.01% acetic acid containing 0.2% BSA) prepared in a 96-well plate, a series of an equal volume of bacterial solution (50 μl) prepared in Mueller-Hinton broth (MHB) were added to the same 96-well plate, and the final bacterial inoculum size in each well of the 96-well plate was approximately 5 × 10^5 CFU/ml. As positive and negative controls, bacteria solution without peptides and blank samples without bacteria were prepared in the same 96-well plate. […] The lowest peptide concentration at which there was no increase in optical density was referred to as the MIC.

Another series relates to S. typhimurium 14028. It is filed as cell-based, Salmonella typhimurium. To be noted: 14028, 20 h.
Source text: as §1, §2

For another series, the system named is E. faecalis 29212. The format is cell-based, Enterococcus faecalis. Conditions: 29212, 20 h.
Source text: as §1, §2

In another series the test system is S. aureus 29213. It is filed as cell-based, Staphylococcus aureus. To be noted: 29213, 20 h.
Source text: as §1, §2

For another series, the system named is IPEC-J2. As to the kind of experiment: MTT cytotoxicity assay. It is filed as cell-based, porcine. The protocol:
(§3) 3-(4,5-dimethylthiozol-2-yl)-2,5-diphenyltetrazolium bromide (MTT) assay and live/dead cell staining assay were conducted to assess the peptide cytotoxicity. For the MTT assay, cell lines were seeded and passaged twice in high-glucose Dulbecco’s modified Eagle’s medium (DMEM, containing 100 μg/ml streptomycin, 100 U/ml penicillin, and 10% vol/vol fetal bovine serum) or Dulbecco’s Modified Eagle Medium/Nutrient Mixture F-12 (DMEM/F-12, containing 100 μg/ml streptomycin, 100 U/ml penicillin, and 10% vol/vol fetal bovine serum) at a 5% CO2 incubator (37°C). The cells (approximately 50,000 cells per well) were cultured in a 96-well plate at a 5% CO2 incubator for 1 day. Then various concentrations of peptide solutions (50 μl) were added to the plate and incubated for another 1 day. The cells solution without peptides and blank samples without cells and peptides were prepared in the same 96-well plate as positive and negative controls, respectively. Subsequently, MTT (0.5 mg/ml, 20 μl per well) was added and the plate was incubated for another 4 h. Removed all supernatant from the plate and added 150 μl of dimethyl sulfoxide. Finally, a microplate reader (Tecan GENios F129004, Austria) was used to record the absorbance data at OD570 nm. Melittin was employed as a control peptide. The cell viability was calculated using the previously described equation ([Lai et al., 2021]).
(In general: Formazan colour is commonly taken as a measure of viable cells.)

Another series concerns HEK293. The experiment in a line: Live/dead cell staining (calcein-AM/PI). Conditions: peptide concentration less than 64 μM. The format is cell-based, human. The text has this: For live/dead cell staining assay, HEK293 cell lines, calcein-AM, and propidium iodide (PI) were employed to assess the cell viability. The processes that come next are the same as in the prior report ([Lai et al., 2021]). There were two technical replicates used in the experiment.

A further series has as its target proteinase K (Parengyodontium album, UniProt P06873). As to the kind of experiment: Proteolytic stability, tricine-SDS-PAGE. The format is in vitro ADME. To be noted: peptide 2.56 mM + 500 μg/ml protease (equal volumes), 16.5% tricine-SDS-PAGE. The protocol: 16.5% tricine−SDS − PAGE was used to evaluate the proteolytic stability of the peptides. The peptides (2.56 mM, 50 μl) were incubated with protease (500 μg/ml, 50 μl) at 37°C. After incubating for 1, 2, 4, or 8 h, the mixture (20 μl) was drawn out and placed in a bath of boiling water for 5 min. The mixture was then diluted to the suitable concentration for 16.5% tricine-SDS-PAGE analysis.

The next series concerns 9 bacterial strains. The experiment in a line: Geometric mean MIC over the 9 bacterial strains. The format is cell-based. Conditions: geometric mean of the 9 strains of Table 1. The protocol:
as §2

A further series deals with HEK293T. As to the kind of experiment: MTT cytotoxicity assay. It is filed as cell-based, human. The protocol: as §3
For the next series, the system named is MRSA 43300. It is filed as cell-based, Methicillin-resistant S. aureus. Conditions: 43300, 20 h.
Source text: as §1, §2

A further series concerns E. coli UB1005. The format is cell-based, Escherichia coli. To be noted: UB1005, 20 h.
Source text: as §1, §2

Another series concerns E. coli 25922. It is filed as cell-based, Escherichia coli. To be noted: 25922, 20 h.
Source text: as §1, §2

A further series has as its system S. epidermidis 12228. The format is cell-based. Conditions: 12228, 20 h.
Source text: as §1, §2

The next series deals with P. aeruginosa 27853. It is filed as cell-based, Pseudomonas aeruginosa. Conditions: 27853, 20 h.
Source text: as §1, §2

Another series has as its system E. coli HP74. As to the kind of experiment: microbe, parasite or virus in culture. The format is cell-based, Escherichia coli. Conditions: HP74, 20 h; read-out: MICs, E. coli HP74.
Source text: as §1, §2

The test system of another series is E. coli HP73. As to the kind of experiment: microbe, parasite or virus in culture. It is filed as cell-based, Escherichia coli. Conditions: HP73, 20 h; read-out: MICs, E. coli HP73.
Source text: as §1, §2

Where [1] appears, read: peptide concentration less than 64 μM.
Setting [2] is: at the test concentrations, 1 day incubation.

≈ marks a conversion by molar mass, not a printed value. Peptide text beside a SMILES is read from it. * marks the point of attachment. Octanoyl = CCCCCCCC(=O)*; Hexanoyl = CCCCCC(=O)*; Butyryl = CCCC(=O)*

Sequence of proteinase K (P06873 106-384): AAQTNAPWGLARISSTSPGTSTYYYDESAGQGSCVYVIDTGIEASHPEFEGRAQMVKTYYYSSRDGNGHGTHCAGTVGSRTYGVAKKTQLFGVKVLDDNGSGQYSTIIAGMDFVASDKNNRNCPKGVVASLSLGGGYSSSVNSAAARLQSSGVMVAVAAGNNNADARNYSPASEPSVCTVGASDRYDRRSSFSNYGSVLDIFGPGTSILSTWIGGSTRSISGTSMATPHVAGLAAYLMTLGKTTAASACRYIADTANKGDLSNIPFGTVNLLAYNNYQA

Regarding `CCCCCC(=O)NCCCC[C@H](NC(=O)[C@H](CC(C)C)NC(=O)[C@H](CCCCN)NC(=O)[C@H](CCCCN)NC(=O)[C@H](CC(C)C)NC(=O)[C@H](CCCCNC(=O)CCCCC)NC(=O)[C@H](CCCCN)NC(=O)[C@H](CCCCN)NC(=O)[C@H](CC(C)C)NC(=O)[C@H](CCCCN)NC(=O)[C@H](CCCCN)NC(=O)[C@H](CC(C)C)NC(=O)[C@@H](N)Cc1c[nH]c2ccccc12)C(=O)N[C@@H](CCCCN)C(=O)N[C@@H](CCCCN)C(=O)O` [WL-C6] (H-WLKKLKKK(Hexanoyl)LKKLK(Hexanoyl)KK-OH), the “MICs, S. typhimurium C7731” value in the series with S. typhimurium C7731 was 4 µM. The “MICs, S. typhimurium 14028” value against S. typhimurium 14028 is 2 µM. For the same compound, in the series with E. faecalis 29212, the “MICs, E. faecalis 29212” value worked out at 4 µM. In the series on S. aureus 29213, the “MICs, S. aureus 29213” value is 4 µM. For the same compound, the “Toxicity toward IPEC-J2” value with IPEC-J2 (setting [1]) is on record as “negligible toxicity”. For the same compound, in the series with HEK293, the “Toxicity toward HEK293” value is on record as “negligible toxicity”. Moreover, the “Stability to proteinase K (band on gel)” value at proteinase K (37°C, 1, 2, 4, 8 h) is reported as “cleaved by proteinase K”. Also, the “Digestion period beyond which the bands gradually vanished, proteinase K” value at proteinase K (37°C) is reported as greater than 1 h. Further, the “GM, geometric mean MICs from the 9 bacterial strains” value (from here on “GM, geometric mean MICs”) with 9 bacterial strains came to 3.43 µM. Also, the “Toxicity toward HEK293T” value with HEK293T (setting [1]) is reported as “negligible toxicity”. In addition, the “MICs, MRSA 43300” value against MRSA 43300 came out at 4 µM. In addition, in the series with E. coli UB1005, the “MICs, E. coli UB1005” value came out at 4 µM. Besides, the “MICs, E. coli 25922” value against E. coli 25922 was found to be 4 µM. Also, the “MICs, S. epidermidis 12228” value with S. epidermidis 12228 turned out to be 4 µM. Moreover, the “MICs, P. aeruginosa 27853” value against P. aeruginosa 27853 is 2 µM. Also, the MIC with E. coli HP74 and in the series on E. coli HP73 was 4 µM (≈ 8.54 µg/mL) in each case.

Consider `CCCCCCCC(=O)NCCCC[C@H](NC(=O)[C@H](CC(C)C)NC(=O)[C@H](CCCCN)NC(=O)[C@H](CCCCN)NC(=O)[C@H](CC(C)C)NC(=O)[C@H](CCCCNC(=O)CCCCCCC)NC(=O)[C@H](CCCCN)NC(=O)[C@H](CCCCN)NC(=O)[C@H](CC(C)C)NC(=O)[C@H](CCCCN)NC(=O)[C@H](CCCCN)NC(=O)[C@H](CC(C)C)NC(=O)[C@@H](N)Cc1c[nH]c2ccccc12)C(=O)N[C@@H](CCCCN)C(=O)N[C@@H](CCCCN)C(=O)O` [WL-C8] (H-WLKKLKKK(Octanoyl)LKKLK(Octanoyl)KK-OH), for which the “MICs, S. typhimurium C7731” value in the series with S. typhimurium C7731 came to 4 µM. Besides, the “MICs, S. typhimurium 14028” value in the series with S. typhimurium 14028 amounted to 4 µM. In the series on E. faecalis 29212, the “MICs, E. faecalis 29212” value is 4 µM. In addition, the “MICs, S. aureus 29213” value against S. aureus 29213 is 4 µM. The “Concentration above which significant cytotoxicity toward IPEC-J2” value in the series with IPEC-J2 (1 day incubation) is “greater than 32 μM”. The “GM, geometric mean MICs” value with 9 bacterial strains amounted to 3.70 µM. In the series with HEK293T (1 day incubation), the “Concentration above which significant cytotoxicity toward HEK293T” value was “greater than 32 μM”. Also, the “MICs, MRSA 43300” value in the series with MRSA 43300 is 4 µM. Besides, the “MICs, E. coli UB1005” value against E. coli UB1005 stood at 2 µM. Besides, the “MICs, E. coli 25922” value in the series with E. coli 25922 is 4 µM. Also, the “MICs, S. epidermidis 12228” value against S. epidermidis 12228 turned out to be 4 µM. For the same compound, in the series with P. aeruginosa 27853, the “MICs, P. aeruginosa 27853” value stood at 4 µM. The MIC in the series on E. coli HP74 and in the series with E. coli HP73 was 4 µM (≈ 8.76 µg/mL) in each case.

On to `CCCC(=O)NCCCC[C@H](NC(=O)[C@H](CC(C)C)NC(=O)[C@H](CCCCN)NC(=O)[C@H](CCCCN)NC(=O)[C@H](CC(C)C)NC(=O)[C@H](CCCCNC(=O)CCC)NC(=O)[C@H](CCCCN)NC(=O)[C@H](CCCCN)NC(=O)[C@H](CC(C)C)NC(=O)[C@H](CCCCN)NC(=O)[C@H](CCCCN)NC(=O)[C@H](CC(C)C)NC(=O)[C@@H](N)Cc1c[nH]c2ccccc12)C(=O)N[C@@H](CCCCN)C(=O)N[C@@H](CCCCN)C(=O)O` [WL-C4] (H-WLKKLKKK(Butyryl)LKKLK(Butyryl)KK-OH), for which the “MICs, S. typhimurium C7731” value in the series with S. typhimurium C7731 amounted to 4 µM. For the same compound, the “MICs, S. typhimurium 14028” value in the series with S. typhimurium 14028 came out at 4 µM. The “MICs, E. faecalis 29212” value in the series on E. faecalis 29212 was 32 µM. Besides, the “MICs, S. aureus 29213” value with S. aureus 29213 was found to be 16 µM. Further, in the series with IPEC-J2 (setting [2]), the “Cytotoxicity toward IPEC-J2” value is listed as “no significant cytotoxicity”. The “GM, geometric mean MICs” value with 9 bacterial strains stood at 8.00 µM. The “Cytotoxicity toward HEK293T” value in the series on HEK293T (setting [2]) is reported as “no significant cytotoxicity”. In addition, the “MICs, MRSA 43300” value in the series with MRSA 43300 was found to be 16 µM. Moreover, in the series with E. coli UB1005, the “MICs, E. coli UB1005” value came out at 4 µM. For the same compound, the “MICs, E. coli 25922” value against E. coli 25922 came out at 8 µM. In addition, the “MICs, S. epidermidis 12228” value against S. epidermidis 12228 was 16 µM. For the same compound, the “MICs, P. aeruginosa 27853” value against P. aeruginosa 27853 worked out at 2 µM.

The values are drawn from publication PMC9780499, “Designing double-site lipidated peptide amphiphiles as potent antimicrobial biomaterials to combat multidrug-resistant bacteria” (Frontiers in Microbiology, 2022).
